From patent US8183342B2, “Method of treating chemotherapy-induced thrombocytopenia” (Case Western Reserve University, priority 2007, dated 2012)
“Also recorded” adds a separate entry of the source. Where a SMILES comes first, the peptide text is derived from it. Where no end group is shown, it is not given here. The star is where a group is joined. Cbz = O=C(OCc1ccccc1)*; CH2F = FC*

Tests used:
cell membrane = test: Cell membrane permeability and retention of peptides in cells (description); assay type: cell-based; conditions: for cell membrane permeability: need of a cell delivery system
[1] = system: primary cultured mouse megakaryocytes; test: Platelet formation in vitro (Integrin αIIB positive platelet like particles, flow cytometry); assay type: cell-based; conditions: 48 h; VPTLK 200 μM; Z-VAD-fmk 200 and 400 μM; FIG. 5B
Description: After the pre-incubation with the peptides, 1 mM EDTA and 50 ng/ml prostaglandin E1 (Sigma) dissolved in ethanol were added to the cell culture before the centrifugation (700 g) at room temperature (RT) for 10 min. The platelets were washed with 300 μl of tyrodes buffer (pH 7.4) containing 2.5 mg/ml BSA and 1 mg/ml glucose. Then 2 μl of anti CD16/anti CD32 (BD Phaminogen™) was added to the platelets. The platelets were incubated at RT for 10 min. The platelets were divided into 3 sets, and 2 μl of rat IgG1 κ phycoerythrin (PE) labeled isotype control (Pharmingen) was added to one sample, and 2 μl of PE labeled antibody of intregin αIIB PE (Santa Cruz) was added to the other two samples. The platelets were incubated at RT for 30 min. Finally, 5 μl of Flow-Count™ Fluorospheres (Beackman-Coulter™) was added to the sample as platelet size marker. The platelets were detected with a FACScan flow cytometer system (Becton Dickinson; BD LSRII) using cellquest software. Each point in the figures showing percent apoptosis represents the mean±SEM of three experiments.

[2] = Preliminary toxicity study in mice; assay type: in vivo; conditions: 166.5 mg/kg i.p. and 16.5 mg/kg i.v.t.
Description: Importantly, we also obtained a preliminary result showing that BIP pre-treatment attenuated Etoposide-induced platelet decrease in mouse model. To develop the technology protecting megakaryocytes from chemotherapy, further extensive animal studies are needed. […] We examined doses of 166.5 mg/kg by i.p. and 16.5 mg/kg by i.v.t. […] The dose of 166.5 mg/kg is expected to achieve 300 μM of BIP in whole mouse body, if a mouse body is assumed to be filled with water. Probably, much less amount of BIP is sufficient to achieve effective doses (50-400 μM) (Sawada, M., P. Hayes, and S. Matsuyama, Cytoprotective membrane-permeable peptides designed from the Bax-binding domain of Ku70. Nat Cell Biol, 2003. 5(4): p. 352-7; Yoshida, T., et al., Bax-inhibiting peptide derived from mouse and rat Ku70. Biochem Biophys Res Commun, 2004. 321(4): p. 961-6; Yu, L. Y., et al., GDNF-deprived sympathetic neurons die via a novel nonmitochondrial pathway. J Cell Biol, 2003. 163(5): p. 987-97; Qin, Q., K. Patil, and S. C. Sharma, The role of Bax-inhibiting peptide in retinal ganglion cell apoptosis after optic nerve transection. Neurosci Lett, 2004. 372(1-2): p. 17-21) in blood or a specific tissue.

[3] = biological target: T1, interaction of Ku70 and Bax (Homo sapiens, UniProt Q07812); test: Inhibition of the interaction of Ku70 and Bax in cell lysates; assay type: binding; conditions: negative controls; lysates from human cultured cells
T1 construct: lysates prepared from human cultured cells (HeLa cells and human kidney epithelial 293 cells); endogenous in cells; host or cells: HeLa cells; human kidney epithelial 293 cells
Description: The Bax-binding domain in Ku70 comprises 6 amino acids (VPMLKE, SEQ ID NO: 1). This peptide (Ku70 Peptide) inhibits the interaction of Ku70 and Bax at the concentration of 20-80 μM in lysates prepared from human cultured cells (HeLa cells and human kidney epithelial 293 cells).

[4] = system: platelet number in mouse peripheral blood; test: Platelet number in mouse peripheral blood after Etoposide; assay type: in vivo, C57BL/6J mice; conditions: Etoposide 150 mg/kg i.p., for 48 hrs
Description: Percentage of platelets in C57BL/6J mice compared to before treatment (100%). […] The statistical significance was determine by an unpaired student t test, *P<0.05, **P<0.01, ***, P<0.001.
Mouse blood (50-100 micro 1) was collected by heparin-coated capillary tube from tail, and the samples were incubated at room temperature for 1 hr before blood cell analysis using HEMA VET blood cell counter (Drew Scientific Inc. Oxford, Conn.). Each blood sample was measured twice, and the mean value of two measurements was used as one sample data (n=1).

T1 sequence (Q07812 whole entry): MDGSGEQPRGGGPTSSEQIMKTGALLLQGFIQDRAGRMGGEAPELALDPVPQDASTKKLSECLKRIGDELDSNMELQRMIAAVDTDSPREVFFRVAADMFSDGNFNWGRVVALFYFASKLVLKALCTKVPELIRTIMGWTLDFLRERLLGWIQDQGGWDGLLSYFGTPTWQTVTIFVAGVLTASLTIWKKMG

With VPALR [VPALR] the cell membrane permeability (cell membrane) was “cell membrane permeable”.
For `CSCC[C@H](NC(=O)[C@@H]1CCCN1)C(=O)N[C@@H](CC(C)C)C(=O)N[C@@H](CCCCN)C(=O)O` [PMLK] (H-PMLK-OH; N-terminus and C-terminus assumed), the “retention in the cell” value (cell membrane) was “not retained in the cell” and the cell membrane permeability (cell membrane) was “cell membrane permeable”.
With VPMLK [VPMLK] the cell membrane permeability (cell membrane) was “cell membrane permeable”.
In the case of `COC(=O)CC(NC(=O)C(C)NC(=O)C(NC(=O)OCc1ccccc1)C(C)C)C(=O)CF` (stereo not drawn) [Z-VAD-fmk, Benzyloxycarbonyl-Val-Ala-Asp (OMe) fluoromethylketone] (Cbz-Val-Ala-Asp(OMe)-CH2F; configuration not given here), the “platelet like particles formation” value [1] is reported as “slightly decreased platelet like particles formation”.
In the case of PMLKE [PMLKE], the cell membrane permeability (cell membrane) is reported as “cell membrane permeable”.
With VPMLKE [VPMLKE] the cell membrane permeability (cell membrane) was “a cell delivery system, such as liposomes as in the case of VPMLKE”.
For VPTLK [VPTLK], the “survival after the injection” value [2] was “more than 3 months” and the toxicity in mice ([2]; preliminary study, listed as BIP) was “did not show any toxicity; also recorded: did not show any sign of illness”.
In the case of “Ku70 Peptide NC: the immediate next six amino acid sequence of Ku70, negative control (LGKFTV; UniProt P12956 573-578, looked up, fragment)”, the “effect on the interaction of Ku70 and Bax” value [3] is reported as “did not affect the interaction of Ku70 and Bax”.
For `COc1cc([C@@H]2c3cc4c(cc3[C@@H](O[C@@H]3O[C@@H]5CO[C@@H](C)O[C@H]5[C@H](O)[C@H]3O)[C@H]3COC(=O)[C@H]23)OCO4)cc(OC)c1O` [Etoposide], the “platelet count in the peripheral blood after Etoposide alone” value [4] was “slight decrease of platelet count”.
